# Measured values from PubChem BioAssay AID1963866 (Molecular Pharmacology Branch, DTP, NCI, 2024).
# Test system: PDC KRAS tumor spheroids with HUVEC/MSC, viability
# Experiment: Anticancer human tumor 349418-098-R-PDC patient-derived lung adenocarcinoma cell line growth inhibition [KRAS2]
# Settings: for IC50: curve of first compound; for viability, T/C: stronger effect = lower value
# From the text: Multicellular complex tumor spheroid response to RAS pathway inhibitors in combination with a targeted agents in patient-derived cell lines with oncogenic KRAS variants from multiple cancer types
# A high-throughput screen of multi-cell type tumor spheroids was designed to identify active combinations of targeted small molecules and KRAS pathway inhibitors. Complex spheroids include a stromal component modeled by human endothelial cells (HUVEC) and fibroblasts modeled by human mesenchymal stem cells (MSCs). The concentration ranges selected for each drug and investigational agent were based upon clinically achievable concentrations if the clinical Cmax of the agent was known.
# Compounds. The drugs and investigational agents: BI-3406 (NSC825286), BAY-293 (NSC824723), batoprotafib (TNO155; NSC825523), sotorasib (AMG 510; NSC818433), MRTX1257 (NSC819558), elimusertib (BAY 1895344; NSC800525), molibresib (GSK525762; NSC774829), temuterkib (LY3214996; NSC803410), venetoclax (NSC766270), alisertib (NSC759677), olaparib (NSC753686), talazoparib (NSC767125), erdafitinib (NSC781556), ipatasertib (NSC767898), cabozantinib (NSC761068), nintedanib (NSC756659), abemaciclib (NSC768073), docetaxel (NSC628503), trametinib (NSC758246), and sapanisertib (NSC764658) were obtained from the National Cancer Institute (NCI) Developmental Therapeutics Program Chemical Repository. The FDA-approved anticancer drug set is available from the Developmental Therapeutics Program. […] The stock solutions were prepared in dimethyl sulfoxide (DMSO, Sigma-Aldrich, St. Louis, MO, cat. D2650) at 800-fold the tested concentration and stored at -70 degrees C prior to their use. All drugs and investigational agents were tested over a range starting from a high concentration at or near the clinical Cmax and decreasing in half-log increments. If the clinical Cmax for an agent had not been determined, the highest concentration tested was 10 microM.
# Cell Culture. All cells were maintained in an incubator at 37 degrees C and 5% CO2 with 95% humidity. The PDC lines were cultured according to standard operating procedures established by the NCI PDMR (https://pdmr.cancer.gov/sops/default.htm). Briefly, all PDCs were thawed and cultured in Matrigel-coated flasks prepared with a working solution of 1X Ham's F-12 nutrient mix, without supplementation (Invitrogen, Waltham, MA, cat. 11765054), 100 U/mL penicillin-streptomycin (Invitrogen, cat. 15140122), and 2.5% Matrigel (Corning Inc., Corning, NY, cat. 354248) for the first three passages. All PDCs were cultured in complete DMEM/F-12 media containing advanced DMEM/F-12 (Invitrogen, cat. 12634028), 4.9% defined fetal bovine serum, heat inactivated (HyClone Laboratories Inc., Logan, UT, cat. SH30070.03HI), 389 ng/mL hydrocortisone (Sigma-Aldrich, cat. H4001), 9.7 ng/mL human EGF recombinant protein (Invitrogen, cat. PHG0313), 23.4 microg/mL adenine (Sigma-Aldrich, cat. A2786), 97.3 U/mL penicillin-streptomycin (Invitrogen, cat. 15140122), 1.9 mM L-glutamine (Invitrogen, cat. 25030081), and 9.7 microM Y-27632 dihydrochloride (Tocris Bioscience, Bristol, United Kingdom, cat. 1254). The PDCs were cultured in complete DMEM/F12 media without 9.7 microM Y-27632 dihydrochloride for at least two passages prior to the screen. The established cell line HOP-62 was cultured in RPMI 1640 medium, HEPES (Invitrogen, cat. 22400105) with 10% defined fetal bovine serum (HyClone Laboratories Inc., cat. SH30070.03) and 2 mM L-glutamine (Invitrogen, cat. 25030081). The pooled donor HUVEC were cultured in endothelial cell growth medium 2 (PromoCell, Heidelberg, Germany, cat. C-22011) and the hMSC were cultured in mesenchymal stem cell growth medium 2 (PromoCell, cat. C-28009). For all experiments, HUVEC and hMSC were used at passages </=5, while the malignant cell lines were used at passages </=15. […]
# [1] = second compound 0.1 µM, first compound 0.0316 µM
# [2] = second compound 0.1 µM, first compound 0.1 µM
# [3] = second compound 0.316 µM, first compound 0.0316 µM
# [4] = second compound 0.316 µM, first compound 0.1 µM
# [5] = second compound 1 µM, first compound 0.0316 µM
# [6] = second compound 1 µM, first compound 0.1 µM
# [7] = second compound 3.16 µM, first compound 0.0316 µM
# [8] = second compound 3.16 µM, first compound 0.1 µM
# [9] = second compound 10 µM, first compound 0.0316 µM
# [10] = second compound 10 µM, first compound 0.1 µM
# 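Note: spheroids exposed to compounds for seven days before readout.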
smiles,measurement,setting,value
CC1(C)CCC(CN2CCN(c3ccc(C(=O)NS(=O)(=O)c4ccc(NCC5CCOCC5)c([N+](=O)[O-])c4)c(Oc4cnc5[nH]ccc5c4)c3)CC2)=C(c2ccc(Cl)cc2)C1 + C=CC(=O)N1CCN(c2nc(=O)n(-c3c(C)ccnc3C(C)C)c3nc(-c4c(O)cccc4F)c(F)cc23)C(C)C1,IC50,second compound 0.1 µM,1740 nM
same,IC50,second compound 0.316 µM,1760 nM
same,IC50,second compound 1 µM,1160 nM
same,IC50,second compound 3.16 µM,538 nM
same,IC50,second compound 10 µM,< 31.6 nM
same,"viability, T/C",[1],99.6%
same,"viability, T/C",[2],91.4%
same,"viability, T/C","second compound 0.1 µM, first compound 0.316 µM",91.7%
same,"viability, T/C","second compound 0.1 µM, first compound 1 µM",85.1%
same,"viability, T/C","second compound 0.1 µM, first compound 3.16 µM",12.4%
same,"viability, T/C","second compound 0.1 µM, first compound 10 µM",3.05%
same,"viability, T/C",[3],92.5%
same,"viability, T/C",[4],92.2%
same,"viability, T/C","second compound 0.316 µM, first compound 0.316 µM",82.6%
same,"viability, T/C","second compound 0.316 µM, first compound 1 µM",78.7%
same,"viability, T/C","second compound 0.316 µM, first compound 3.16 µM",20.4%
same,"viability, T/C","second compound 0.316 µM, first compound 10 µM",3.58%
same,"viability, T/C",[5],78.4%
same,"viability, T/C",[6],80.5%
same,"viability, T/C","second compound 1 µM, first compound 0.316 µM",75.4%
same,"viability, T/C","second compound 1 µM, first compound 1 µM",55.6%
same,"viability, T/C","second compound 1 µM, first compound 3.16 µM",12.9%
same,"viability, T/C","second compound 1 µM, first compound 10 µM",2.8%
same,"viability, T/C",[7],59.6%
same,"viability, T/C",[8],58.2%
same,"viability, T/C","second compound 3.16 µM, first compound 0.316 µM",52.6%
same,"viability, T/C","second compound 3.16 µM, first compound 1 µM",44.2%
same,"viability, T/C","second compound 3.16 µM, first compound 3.16 µM",13.1%
same,"viability, T/C","second compound 3.16 µM, first compound 10 µM",3.37%
same,"viability, T/C",[9],32.7%
same,"viability, T/C",[10],33.7%
same,"viability, T/C","second compound 10 µM, first compound 0.316 µM",31.9%
same,"viability, T/C","second compound 10 µM, first compound 1 µM",32.5%
same,"viability, T/C","second compound 10 µM, first compound 3.16 µM",6.8%
same,"viability, T/C","second compound 10 µM, first compound 10 µM",5.41%
Cn1ncnc1[C@H]1c2n[nH]c(=O)c3cc(F)cc(c23)N[C@@H]1c1ccc(F)cc1 + C=CC(=O)N1CCN(c2nc(=O)n(-c3c(C)ccnc3C(C)C)c3nc(-c4c(O)cccc4F)c(F)cc23)C(C)C1,IC50,second compound 0.1 µM,> 100 nM
same,IC50,second compound 0.316 µM,> 100 nM
same,IC50,second compound 1 µM,> 100 nM
same,IC50,second compound 3.16 µM,> 100 nM
same,IC50,second compound 10 µM,< 0.316 nM
same,"viability, T/C","second compound 0.1 µM, first compound 0.000316 µM",101%
same,"viability, T/C","second compound 0.1 µM, first compound 0.001 µM",95.4%
same,"viability, T/C","second compound 0.1 µM, first compound 0.00316 µM",94.5%
same,"viability, T/C","second compound 0.1 µM, first compound 0.01 µM",92.3%
same,"viability, T/C",[1],88.1%
same,"viability, T/C",[2],87%
same,"viability, T/C","second compound 0.316 µM, first compound 0.000316 µM",95.2%
same,"viability, T/C","second compound 0.316 µM, first compound 0.001 µM",88.4%
same,"viability, T/C","second compound 0.316 µM, first compound 0.00316 µM",86.8%
same,"viability, T/C","second compound 0.316 µM, first compound 0.01 µM",87.6%
same,"viability, T/C",[3],83%
same,"viability, T/C",[4],75.7%
same,"viability, T/C","second compound 1 µM, first compound 0.000316 µM",81.1%
same,"viability, T/C","second compound 1 µM, first compound 0.001 µM",79.3%
same,"viability, T/C","second compound 1 µM, first compound 0.00316 µM",80.5%
same,"viability, T/C","second compound 1 µM, first compound 0.01 µM",73.3%
same,"viability, T/C",[5],64.6%
same,"viability, T/C",[6],64.6%
same,"viability, T/C","second compound 3.16 µM, first compound 0.000316 µM",65.8%
same,"viability, T/C","second compound 3.16 µM, first compound 0.001 µM",66.6%
same,"viability, T/C","second compound 3.16 µM, first compound 0.00316 µM",58.1%
same,"viability, T/C","second compound 3.16 µM, first compound 0.01 µM",60.9%
same,"viability, T/C",[7],61.1%
same,"viability, T/C",[8],56.3%
same,"viability, T/C","second compound 10 µM, first compound 0.000316 µM",39%
same,"viability, T/C","second compound 10 µM, first compound 0.001 µM",43.6%
same,"viability, T/C","second compound 10 µM, first compound 0.00316 µM",43.9%
same,"viability, T/C","second compound 10 µM, first compound 0.01 µM",29.1%
same,"viability, T/C",[9],34.3%
same,"viability, T/C",[10],30.5%
